Experimental data taken from patent US20210361616A1, “AMELIORATING AGENT FOR FEMALE-SPECIFIC PHYSICAL AND/OR MENTAL UNPLEASANT SYMPTOM” (OTSUKA PHARMACEUTICAL CO., LTD., priority 2016, published 2021).

What was measured:
Format in all cases: in vivo, human
[1] = system: people who had any unpleasant symptom before menstruation; experiment: Combined administration test of γ-tocopherol and equol, MDQ questionnaire; settings: suggested by the results of Test Example 1 and Test Example 2; equol alone not administered
[2] = system: people who had fluid retention before menstruation; experiment: Administration test of γ-tocopherol alone, MDQ questionnaire; settings: 360 mg/day γ-tocopherol, 7 days, 25 people
Protocol: (§1) Twenty-five people who had fluid retention before menstruation were subjected to randomly-assigned placebo-controlled double-blind tested group comparative study. […] An evaluation period is between the morning of the 6th day after the start of the continuous ingestion and the morning of the 8th day […]. Evaluation by questionnaires was conducted before every meal. An average value of variations from a start value of the evaluation was obtained to compare the tested group with the placebo group.
(§2) The evaluation by questionnaires was conducted by VAS (visual analog scale) and MDQ (menstrual distress questionnaire).
(§3) For VAS, the subjects indicated their symptoms about each questionnaire on a scale of “0 mm” (no symptom) to “100 mm” (the symptom is very strong/the symptom affects daily living), and an average value of variations from a start value of the evaluation was calculated. For MDQ, the subjects answered each questionnaire on a six-point scale of “0” (no symptom) to “5” (the symptom is very strong/the symptom affects daily living).

[3] = system: people who had fluid retention before menstruation; experiment: Administration test of γ-tocopherol alone, VAS questionnaire; settings: 360 mg/day γ-tocopherol, 7 days, 25 people, placebo-controlled double-blind
Protocol: as §1, §2, §3

Row | SMILES | effects of equol alone on "pain", "negative emotion", "concentration ability" and "change in behavior" [1] | proportion of people who had decreased MDQ scores as compared with the placebo group, "change in behavior" [2] [%] | proportion of people who had decreased MDQ scores as compared with the placebo group, item "concentration ability" [2] [%] | proportion of people who had decreased MDQ scores as compared with the placebo group, item "fluid retention" [2] [%] | proportion of people who had decreased MDQ scores as compared with the placebo group, item "negative emotion" [2] [%] | proportion of people who had decreased MDQ scores as compared with the placebo group, item "pain" [2] [%] | VAS "annoyance or irritability" (mental unpleasant symptoms) as compared with a placebo group [3] | VAS leg swelling (physical unpleasant symptoms) as compared with a placebo group [3]
1 | Oc1ccc(C2COc3cc(O)ccc3C2)cc1 (centres unmarked) [equol] | has effects |  |  |  |  |  |  | 
2 | Cc1c(O)cc2c(c1C)O[C@](C)(CCC[C@H](C)CCC[C@H](C)CCCC(C)C)CC2 [γ-tocopherol] |  | 32.0 | 36.0 | 56.0 | 28.0 | 44.0 | significant amelioration | significant amelioration
